Experiment [1] has as its target Casein kinase I isoform delta (Homo sapiens) (UniProt P48730). Kind of experiment: Inhibition of human CK1D catalytic domain expressed in Escherichia coli cell assessed as substrate phosphorylation using fluorescence-labelled peptides as substrate at 2 uM after 90 mins by microfluidic peptide phosphorylation assay.
Experiment [2] has as its target Protein kinase C theta type (Homo sapiens) (UniProt Q04759). Kind of experiment: Inhibition of human truncated PKC theta expressed in baculovirus assessed as substrate phosphorylation using fluorescence-labelled peptides as substrate at 0.2 uM after 90 mins by microfluidic peptide phosphorylation assay.
For experiment [3], the target named is RAC-alpha serine/threonine-protein kinase (Homo sapiens) (UniProt P31749). Kind of experiment: Inhibition of human AKT1 catalytic domain expressed in baculovirus assessed as substrate phosphorylation using fluorescence-labelled peptides as substrate at 0.2 uM after 90 mins by microfluidic peptide phosphorylation assay.
The target in experiment [4] is Calcium/calmodulin-dependent protein kinase type II subunit gamma (Homo sapiens) (UniProt Q13555). Kind of experiment: Inhibition of human CAMK2 gamma catalytic domain expressed in baculovirus assessed as substrate phosphorylation using fluorescence-labelled peptides as substrate at 0.06 uM after 90 mins by microfluidic peptide phosphorylation assay.
For experiment [5], the target named is Insulin-like growth factor 1 receptor (Homo sapiens) (UniProt P08069). In words: Inhibition of human IGF1R catalytic domain expressed in baculovirus assessed as substrate phosphorylation using fluorescence-labelled peptides as substrate at 9 uM after 90 mins by microfluidic peptide phosphorylation assay.
Experiment [6] concerns the target Calcium/calmodulin-dependent protein kinase type II subunit delta (Homo sapiens) (UniProt Q13557). Kind of experiment: Inhibition of human full length CAMK2D expressed in baculovirus assessed as substrate phosphorylation using fluorescence-labelled peptides as substrate at 9 uM after 90 mins by microfluidic peptide phosphorylation assay.
Experiment [7] has as its target T1, Serine/threonine-protein kinase 3 (Homo sapiens) (UniProt Q13188).
T1 sequence (whole entry): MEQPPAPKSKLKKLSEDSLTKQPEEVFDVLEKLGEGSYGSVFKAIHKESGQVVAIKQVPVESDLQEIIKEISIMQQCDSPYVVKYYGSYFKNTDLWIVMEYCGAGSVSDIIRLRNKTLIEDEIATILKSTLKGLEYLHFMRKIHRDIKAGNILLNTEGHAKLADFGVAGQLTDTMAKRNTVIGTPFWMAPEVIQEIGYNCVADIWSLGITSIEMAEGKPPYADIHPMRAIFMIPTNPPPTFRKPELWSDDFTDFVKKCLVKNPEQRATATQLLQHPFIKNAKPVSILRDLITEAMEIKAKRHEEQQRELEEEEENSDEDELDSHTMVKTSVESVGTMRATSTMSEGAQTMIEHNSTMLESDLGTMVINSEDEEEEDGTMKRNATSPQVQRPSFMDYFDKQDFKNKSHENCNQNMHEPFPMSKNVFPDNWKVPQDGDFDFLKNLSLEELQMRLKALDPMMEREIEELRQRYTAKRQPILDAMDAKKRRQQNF
In words: Inhibition of human full length MST2 expressed in baculovirus assessed as substrate phosphorylation using fluorescence-labelled peptides as substrate at 8 uM after 90 mins by microfluidic peptide phosphorylation assay.

The target in experiment [8] is Mitogen-activated protein kinase 3 (Homo sapiens) (UniProt P27361). Kind of experiment: Inhibition of human full length ERK1 expressed in Escherichia coli cell assessed as substrate phosphorylation using fluorescence-labelled peptides as substrate at 70 uM after 90 mins by microfluidic peptide phosphorylation assay.
For experiment [9], the target named is Mitogen-activated protein kinase kinase kinase kinase 4 (Homo sapiens) (UniProt O95819). In words: Inhibition of human HGK catalytic domain expressed in baculovirus assessed as substrate phosphorylation using fluorescence-labelled peptides as substrate at 70 uM after 90 mins by microfluidic peptide phosphorylation assay.
In experiment [10] the target is T2, Protein kinase C zeta type (Homo sapiens) (UniProt Q05513).
T2 sequence (whole entry): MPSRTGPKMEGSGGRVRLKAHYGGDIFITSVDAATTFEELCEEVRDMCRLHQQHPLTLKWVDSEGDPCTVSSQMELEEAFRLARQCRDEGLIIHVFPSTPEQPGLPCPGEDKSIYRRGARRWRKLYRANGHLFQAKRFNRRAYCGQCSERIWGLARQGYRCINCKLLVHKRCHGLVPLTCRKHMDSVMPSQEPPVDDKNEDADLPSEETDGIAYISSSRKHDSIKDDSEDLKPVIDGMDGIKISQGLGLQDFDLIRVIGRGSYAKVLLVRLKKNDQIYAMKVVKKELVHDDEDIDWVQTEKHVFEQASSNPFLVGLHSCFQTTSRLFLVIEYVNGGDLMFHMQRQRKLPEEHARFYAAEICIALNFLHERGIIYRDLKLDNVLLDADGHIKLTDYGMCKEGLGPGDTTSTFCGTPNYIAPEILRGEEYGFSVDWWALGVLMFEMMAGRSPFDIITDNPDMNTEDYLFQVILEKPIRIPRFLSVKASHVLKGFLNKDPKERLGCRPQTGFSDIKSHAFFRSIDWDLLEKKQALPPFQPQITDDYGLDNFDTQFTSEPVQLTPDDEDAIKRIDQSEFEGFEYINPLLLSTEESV
Kind of experiment: Inhibition of human full length PKC zeta expressed in baculovirus assessed as substrate phosphorylation using fluorescence-labelled peptides as substrate at 70 uM after 90 mins by microfluidic peptide phosphorylation assay.

For experiment [11], the target named is Mitogen-activated protein kinase 14 (Homo sapiens) (UniProt Q16539). Kind of experiment: Inhibition of human truncated p38 alpha expressed in Escherichia coli cell assessed as substrate phosphorylation using fluorescence-labelled peptides as substrate at […] after 90 mins by microfluidic peptide phosphorylation assay.
The target of experiment [12] is Fibroblast growth factor receptor 2 (Homo sapiens) (UniProt P21802). Kind of experiment: Inhibition of human FGFR2 catalytic domain expressed in baculovirus assessed as substrate phosphorylation using fluorescence-labelled peptides as substrate at 420 uM after 90 mins by microfluidic peptide phosphorylation assay.
Experiment [13] deals with Dual specificity tyrosine-phosphorylation-regulated kinase 1A (Rattus norvegicus) (UniProt Q63470). Kind of experiment: Inhibition of rat full length DYRK1a expressed in Escherichia coli cell assessed as substrate phosphorylation using fluorescence-labelled peptides as substrate at 420 uM after 90 mins by microfluidic peptide phosphorylation assay.
Experiment [14] deals with Serine/threonine-protein kinase PAK 2 (Homo sapiens) (UniProt Q13177). In words: Inhibition of human truncated PAK2 expressed in Escherichia coli cell assessed as substrate phosphorylation using fluorescence-labelled peptides as substrate at 420 uM after 90 mins by microfluidic peptide phosphorylation assay.
The target in experiment [15] is Tyrosine-protein kinase BTK (Homo sapiens) (UniProt Q06187). In words: Inhibition of human full length BTK expressed in baculovirus assessed as substrate phosphorylation using fluorescence-labelled peptides as substrate at 420 uM after 90 mins by microfluidic peptide phosphorylation assay.

Chain of RAC-alpha serine/threonine-protein kinase (Homo sapiens) (P31749 whole entry, the tested form may be a part): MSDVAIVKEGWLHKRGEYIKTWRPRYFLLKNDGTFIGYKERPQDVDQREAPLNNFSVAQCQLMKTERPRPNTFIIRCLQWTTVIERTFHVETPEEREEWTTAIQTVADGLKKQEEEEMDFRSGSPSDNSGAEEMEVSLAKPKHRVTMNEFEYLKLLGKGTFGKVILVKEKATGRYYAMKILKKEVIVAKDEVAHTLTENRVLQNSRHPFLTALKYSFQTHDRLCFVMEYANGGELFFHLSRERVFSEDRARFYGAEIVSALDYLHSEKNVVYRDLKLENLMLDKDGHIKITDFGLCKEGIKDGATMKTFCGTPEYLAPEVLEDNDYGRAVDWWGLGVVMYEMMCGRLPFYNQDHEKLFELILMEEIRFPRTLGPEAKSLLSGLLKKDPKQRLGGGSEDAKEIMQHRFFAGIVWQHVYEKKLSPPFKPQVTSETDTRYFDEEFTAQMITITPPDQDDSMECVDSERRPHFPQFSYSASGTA
Chain of Casein kinase I isoform delta (Homo sapiens) (P48730 whole entry, looked up, the tested form may be a part, canonical isoform): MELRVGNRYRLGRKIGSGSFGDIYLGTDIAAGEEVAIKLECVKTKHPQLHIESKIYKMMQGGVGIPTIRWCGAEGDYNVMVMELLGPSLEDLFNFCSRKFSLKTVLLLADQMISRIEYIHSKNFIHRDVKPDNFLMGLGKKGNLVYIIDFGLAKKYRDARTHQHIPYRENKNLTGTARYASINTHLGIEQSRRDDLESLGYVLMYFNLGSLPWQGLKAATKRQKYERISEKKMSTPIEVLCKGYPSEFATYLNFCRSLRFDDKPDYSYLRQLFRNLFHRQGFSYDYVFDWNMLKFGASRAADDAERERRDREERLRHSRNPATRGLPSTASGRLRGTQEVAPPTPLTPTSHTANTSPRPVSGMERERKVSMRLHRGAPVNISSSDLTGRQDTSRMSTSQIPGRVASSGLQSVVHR
Chain of Calcium/calmodulin-dependent protein kinase type II subunit delta (Homo sapiens) (Q13557 whole entry): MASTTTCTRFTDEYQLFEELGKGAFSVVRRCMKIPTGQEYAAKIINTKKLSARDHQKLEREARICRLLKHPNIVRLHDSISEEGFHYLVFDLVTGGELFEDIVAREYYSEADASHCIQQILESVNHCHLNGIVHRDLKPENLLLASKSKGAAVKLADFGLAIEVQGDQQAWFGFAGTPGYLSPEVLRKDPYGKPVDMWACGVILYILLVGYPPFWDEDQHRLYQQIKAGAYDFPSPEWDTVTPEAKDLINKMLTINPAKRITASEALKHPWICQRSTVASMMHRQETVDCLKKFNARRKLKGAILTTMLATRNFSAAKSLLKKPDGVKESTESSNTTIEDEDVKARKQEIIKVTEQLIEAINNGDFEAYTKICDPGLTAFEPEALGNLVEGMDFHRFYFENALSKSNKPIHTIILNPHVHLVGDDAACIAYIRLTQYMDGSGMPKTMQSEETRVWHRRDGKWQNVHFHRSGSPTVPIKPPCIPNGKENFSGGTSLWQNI
Chain of Mitogen-activated protein kinase 3 (Homo sapiens) (P27361 whole entry, the tested form may be a part): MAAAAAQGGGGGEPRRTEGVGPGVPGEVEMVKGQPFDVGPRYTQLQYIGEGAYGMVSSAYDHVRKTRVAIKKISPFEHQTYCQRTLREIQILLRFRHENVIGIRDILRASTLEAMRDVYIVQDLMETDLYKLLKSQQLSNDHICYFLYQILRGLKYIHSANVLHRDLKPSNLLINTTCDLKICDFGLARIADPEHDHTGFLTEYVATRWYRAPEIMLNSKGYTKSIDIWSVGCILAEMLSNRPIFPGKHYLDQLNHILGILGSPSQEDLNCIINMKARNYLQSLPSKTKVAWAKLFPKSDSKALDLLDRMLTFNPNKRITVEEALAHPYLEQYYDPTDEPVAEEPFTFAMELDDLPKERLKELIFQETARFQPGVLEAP
Chain of Serine/threonine-protein kinase PAK 2 (Homo sapiens) (Q13177 whole entry, the tested form may be a part): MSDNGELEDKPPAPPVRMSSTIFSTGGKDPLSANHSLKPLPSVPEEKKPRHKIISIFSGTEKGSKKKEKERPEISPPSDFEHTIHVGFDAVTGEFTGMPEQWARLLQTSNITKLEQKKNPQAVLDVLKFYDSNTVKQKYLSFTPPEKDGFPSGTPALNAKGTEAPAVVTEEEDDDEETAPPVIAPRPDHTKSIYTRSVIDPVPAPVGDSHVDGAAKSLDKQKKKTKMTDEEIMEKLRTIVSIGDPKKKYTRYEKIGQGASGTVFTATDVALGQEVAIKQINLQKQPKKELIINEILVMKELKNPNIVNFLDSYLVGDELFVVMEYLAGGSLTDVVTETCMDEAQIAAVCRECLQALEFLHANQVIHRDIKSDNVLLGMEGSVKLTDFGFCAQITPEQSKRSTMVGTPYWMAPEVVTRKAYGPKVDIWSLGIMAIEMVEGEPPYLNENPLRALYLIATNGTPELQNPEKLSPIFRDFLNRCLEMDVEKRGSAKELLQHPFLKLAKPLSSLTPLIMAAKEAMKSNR
Chain of Calcium/calmodulin-dependent protein kinase type II subunit gamma (Homo sapiens) (Q13555 whole entry, the tested form may be a part): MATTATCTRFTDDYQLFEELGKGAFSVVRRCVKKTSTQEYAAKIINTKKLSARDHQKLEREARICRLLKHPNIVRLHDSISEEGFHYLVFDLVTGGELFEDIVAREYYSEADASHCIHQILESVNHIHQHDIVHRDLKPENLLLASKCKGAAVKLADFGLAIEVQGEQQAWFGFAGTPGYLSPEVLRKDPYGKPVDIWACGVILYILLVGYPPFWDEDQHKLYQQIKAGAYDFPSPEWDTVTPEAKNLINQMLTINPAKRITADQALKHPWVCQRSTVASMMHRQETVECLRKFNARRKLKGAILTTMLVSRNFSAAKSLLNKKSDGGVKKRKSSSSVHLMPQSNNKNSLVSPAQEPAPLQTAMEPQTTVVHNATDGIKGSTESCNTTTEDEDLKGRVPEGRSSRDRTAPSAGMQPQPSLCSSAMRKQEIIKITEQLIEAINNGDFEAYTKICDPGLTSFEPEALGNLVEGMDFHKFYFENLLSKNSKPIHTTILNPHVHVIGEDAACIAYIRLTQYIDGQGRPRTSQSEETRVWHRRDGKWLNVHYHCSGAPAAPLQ
Chain of Fibroblast growth factor receptor 2 (Homo sapiens) (P21802 22-821 limits assumed): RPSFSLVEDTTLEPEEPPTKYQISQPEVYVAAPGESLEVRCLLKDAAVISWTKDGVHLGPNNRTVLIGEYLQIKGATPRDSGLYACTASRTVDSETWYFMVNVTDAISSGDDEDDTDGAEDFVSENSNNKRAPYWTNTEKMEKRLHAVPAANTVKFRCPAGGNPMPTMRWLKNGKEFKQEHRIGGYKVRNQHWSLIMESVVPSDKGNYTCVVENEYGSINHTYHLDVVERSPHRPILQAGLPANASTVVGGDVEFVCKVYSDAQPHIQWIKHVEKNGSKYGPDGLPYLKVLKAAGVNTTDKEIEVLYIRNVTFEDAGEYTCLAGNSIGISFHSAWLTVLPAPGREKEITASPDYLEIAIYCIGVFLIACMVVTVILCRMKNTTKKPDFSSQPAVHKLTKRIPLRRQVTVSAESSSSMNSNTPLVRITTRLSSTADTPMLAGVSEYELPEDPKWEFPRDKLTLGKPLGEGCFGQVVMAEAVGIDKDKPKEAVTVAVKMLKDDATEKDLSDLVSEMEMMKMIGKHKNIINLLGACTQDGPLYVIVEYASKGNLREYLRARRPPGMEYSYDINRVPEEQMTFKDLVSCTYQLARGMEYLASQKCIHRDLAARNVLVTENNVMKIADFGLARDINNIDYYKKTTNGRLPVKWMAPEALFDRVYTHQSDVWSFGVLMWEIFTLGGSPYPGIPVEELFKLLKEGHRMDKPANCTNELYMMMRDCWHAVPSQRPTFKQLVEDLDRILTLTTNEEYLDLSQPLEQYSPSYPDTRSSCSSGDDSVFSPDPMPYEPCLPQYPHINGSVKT
Chain of Mitogen-activated protein kinase kinase kinase kinase 4 (Homo sapiens) (O95819 2-1239 limits assumed): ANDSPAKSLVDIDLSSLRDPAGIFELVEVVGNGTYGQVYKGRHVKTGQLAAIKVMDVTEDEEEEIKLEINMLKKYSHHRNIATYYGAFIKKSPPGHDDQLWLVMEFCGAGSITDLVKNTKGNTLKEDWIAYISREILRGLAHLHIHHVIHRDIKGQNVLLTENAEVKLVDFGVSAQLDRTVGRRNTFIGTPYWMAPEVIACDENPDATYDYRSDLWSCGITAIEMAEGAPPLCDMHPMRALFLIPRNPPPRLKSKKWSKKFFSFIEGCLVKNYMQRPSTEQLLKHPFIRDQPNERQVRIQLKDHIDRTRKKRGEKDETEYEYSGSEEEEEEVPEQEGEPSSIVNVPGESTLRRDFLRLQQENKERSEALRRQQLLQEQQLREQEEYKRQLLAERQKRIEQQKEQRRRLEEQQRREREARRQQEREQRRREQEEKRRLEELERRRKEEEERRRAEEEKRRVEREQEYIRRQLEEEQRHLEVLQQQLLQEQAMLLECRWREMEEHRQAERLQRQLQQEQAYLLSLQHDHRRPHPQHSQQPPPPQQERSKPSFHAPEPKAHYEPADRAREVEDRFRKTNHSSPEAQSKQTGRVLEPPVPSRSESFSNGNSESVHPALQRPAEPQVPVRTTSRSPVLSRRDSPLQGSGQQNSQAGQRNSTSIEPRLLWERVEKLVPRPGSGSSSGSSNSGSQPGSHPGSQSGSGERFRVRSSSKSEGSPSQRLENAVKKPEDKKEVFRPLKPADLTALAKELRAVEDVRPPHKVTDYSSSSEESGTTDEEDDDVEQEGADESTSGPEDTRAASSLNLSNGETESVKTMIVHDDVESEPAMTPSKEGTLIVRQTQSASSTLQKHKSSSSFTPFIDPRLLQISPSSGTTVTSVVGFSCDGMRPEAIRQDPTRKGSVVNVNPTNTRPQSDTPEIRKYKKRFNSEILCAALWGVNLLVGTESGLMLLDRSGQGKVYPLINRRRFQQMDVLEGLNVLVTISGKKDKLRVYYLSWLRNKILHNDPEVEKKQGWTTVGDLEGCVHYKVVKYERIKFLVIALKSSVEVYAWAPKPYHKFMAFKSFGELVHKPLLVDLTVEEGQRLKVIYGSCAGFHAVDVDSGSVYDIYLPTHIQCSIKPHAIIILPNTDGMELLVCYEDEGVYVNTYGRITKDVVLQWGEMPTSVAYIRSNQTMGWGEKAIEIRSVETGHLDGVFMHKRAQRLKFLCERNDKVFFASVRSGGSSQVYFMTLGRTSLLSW

For orientation: inhibition means the drop in the measured response relative to a control, in per cent. With `NC1CCN(c2ncnc3[nH]ccc23)CC1`, the inhibition in experiment [1] worked out at 0%.

`Clc1ccc(C2(c3ccc(-c4ncnc5[nH]cnc45)cc3)CCNCC2)cc1`: the inhibition is 31.5% in experiment [2] and 94% in [3].

In the case of `NC1(Cc2ccc(Cl)cc2)CCN(c2ncnc3[nH]ccc23)CC1`, the inhibition in experiment [4] came out at 0%.

On to `NCC1CN(c2ncnc3[nH]c4cnccc4c23)CCO1` (stereo not given), for which the results for the inhibition in experiment [5] and in [6] were 10% and 42.5%, respectively.

For the molecule `NCC1CCN(c2ncnc3[nH]ccc23)CC1`, the inhibition in experiment [7] came out at 73%.

On to `CNCc1ccc(-c2ncnc3[nH]cnc23)cc1`, for which the inhibition in [8] came to 28.5%; in experiment [9] it was 42%; in experiment [10], 0%.

`COC(=O)c1cnc(Nc2cnc(C#N)cn2)cc1NCC1CCNCC1`: the inhibition in [11] came to 2%.

Turning to `c1nc(N2CCOCC2)c2nc[nH]c2n1`, the inhibition in [12] was 93%; in [13], 77%; in experiment [14], 67.5%; in experiment [15], 55%.

Source of the values: ChEMBL document CHEMBL3132769, “Fragment growing to retain or alter the selectivity of anchored kinase hinge-binding fragments” (Medchemcomm, 2014).
